The record followed here is patent US12559529B2, “NPY2 receptor agonists” (Boehringer Ingelheim International GmbH, priority 2019, dated 2026).

SMILES strings stand for the structures.

The target of one test is T1, human NPY2 receptor (Homo sapiens, UniProt P49146).
T1 sequence (P49146 1-381): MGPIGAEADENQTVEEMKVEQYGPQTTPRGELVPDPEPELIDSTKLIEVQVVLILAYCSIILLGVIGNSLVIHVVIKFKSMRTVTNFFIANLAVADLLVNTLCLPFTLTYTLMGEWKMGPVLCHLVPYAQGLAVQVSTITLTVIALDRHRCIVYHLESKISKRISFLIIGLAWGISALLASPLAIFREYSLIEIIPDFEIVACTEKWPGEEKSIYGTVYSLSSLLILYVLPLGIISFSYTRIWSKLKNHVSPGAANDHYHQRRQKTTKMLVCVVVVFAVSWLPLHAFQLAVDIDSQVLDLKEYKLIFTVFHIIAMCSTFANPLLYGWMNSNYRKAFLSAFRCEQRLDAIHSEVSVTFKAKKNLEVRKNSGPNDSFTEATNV
Put plainly: HTRF cAMP Gi assay, hY2R.

In the next test the target is T2, human NPY1 receptor (Homo sapiens, UniProt P25929).
T2 construct: expressed in transfected cells; host or cells: CHO-K1
T2 sequence (P25929 1-384): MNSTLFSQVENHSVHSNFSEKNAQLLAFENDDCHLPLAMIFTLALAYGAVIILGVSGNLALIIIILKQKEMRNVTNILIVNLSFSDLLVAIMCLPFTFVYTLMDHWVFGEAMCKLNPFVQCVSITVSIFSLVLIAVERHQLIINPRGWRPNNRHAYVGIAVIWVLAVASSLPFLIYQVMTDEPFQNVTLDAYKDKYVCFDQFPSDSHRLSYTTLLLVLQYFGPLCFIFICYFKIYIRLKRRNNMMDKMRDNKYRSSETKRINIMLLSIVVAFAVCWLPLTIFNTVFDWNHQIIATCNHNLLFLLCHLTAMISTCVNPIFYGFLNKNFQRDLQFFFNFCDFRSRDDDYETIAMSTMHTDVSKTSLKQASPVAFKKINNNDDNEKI
Briefly: HTRF cAMP Gi assay, hY1R. Format: cell-based. As to conditions: Table 4; CHO-K1 cells.

In another test the target is T3, human NPY5 receptor (Homo sapiens, UniProt Q15761).
T3 sequence (Q15761 1-445): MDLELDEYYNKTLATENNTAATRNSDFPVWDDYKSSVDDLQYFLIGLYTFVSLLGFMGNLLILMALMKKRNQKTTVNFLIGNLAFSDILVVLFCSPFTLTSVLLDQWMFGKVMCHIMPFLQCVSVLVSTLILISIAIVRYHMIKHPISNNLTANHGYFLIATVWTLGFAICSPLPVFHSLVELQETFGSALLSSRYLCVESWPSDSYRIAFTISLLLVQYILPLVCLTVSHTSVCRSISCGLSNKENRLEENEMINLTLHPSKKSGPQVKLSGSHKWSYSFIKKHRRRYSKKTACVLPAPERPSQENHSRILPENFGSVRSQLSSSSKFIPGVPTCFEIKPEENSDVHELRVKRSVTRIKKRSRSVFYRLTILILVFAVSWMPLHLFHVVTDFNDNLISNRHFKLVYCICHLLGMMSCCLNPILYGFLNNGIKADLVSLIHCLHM
Briefly: HTRF cAMP Gi assay, hY5R.

Another test deals with T4, human NPY4 receptor (Homo sapiens, UniProt P50391).
T4 construct: expressed in transfected cells; host or cells: CHO-K1
T4 sequence (P50391 whole entry): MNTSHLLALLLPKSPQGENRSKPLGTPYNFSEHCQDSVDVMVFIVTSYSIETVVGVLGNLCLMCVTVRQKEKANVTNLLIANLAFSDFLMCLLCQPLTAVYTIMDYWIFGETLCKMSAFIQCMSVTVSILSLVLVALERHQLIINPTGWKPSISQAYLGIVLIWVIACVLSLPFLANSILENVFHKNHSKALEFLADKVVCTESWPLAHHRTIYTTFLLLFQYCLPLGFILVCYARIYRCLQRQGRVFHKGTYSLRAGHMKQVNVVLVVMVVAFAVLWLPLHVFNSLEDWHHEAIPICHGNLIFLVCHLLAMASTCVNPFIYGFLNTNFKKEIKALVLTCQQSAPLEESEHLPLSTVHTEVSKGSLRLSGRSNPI
Put plainly: HTRF cAMP Gi assay, hY4R. It is filed as cell-based. As to conditions: Table 4; CHO-K1 cells.

For the next test, the system named is normal NMRI mice. Briefly: Effect on acute food intake in normal NMRI mice. It is filed as in vivo. As to conditions: male NMRI mice, 10 nmol/kg subcutaneously once. The procedure, abridged:
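A single 10 nmol/kg s.c. peptide dose was given 1 h before lights-off to male NMRI mice fasted from 6 h before the night phase (n=7-8). Intake was recorded continuously by microchip-identified HM-2 feeding channels. Values are normalized to vehicle controls (50 mM phosphate buffer pH7 with 5% Mannitol).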

The target in test [1] is T5, Human Neuropeptide Y2 Receptor (Homo sapiens, UniProt P49146).
T5 construct: purchased CHEMICON HTS066M
T5 sequence (P49146 1-381): T1 sequence (P49146 1-381)
Briefly: Activity (RLB) after incubation in solutions at different pH values. Format: binding. As to conditions: apparent Ki of filtrate after 2 h in buffer, pH6.1-6.2, assumed 10 mg/ml; read-out: RLB 6 (pH6.1-6.2). As for the experimental part: The filtration RLB assay was carried out in 96-well plates in a final volume of 100 μl per well. Freeze-dried test peptides were dissolved in 100% dimethyl sulfoxide (DMSO) to stock solutions of 1 mM and serial dilutions were performed in assay buffer (50 mM HEPES, 5 mM MgCl2, 1 mM CaCl2), pH 7.4) containing 0.2% ovalbumin. […] Next, 80 μL membranes (HTS066M, ChemiSCREEN™ Human Neuropeptide Y2 Receptor Membrane Preparation, CHEMICON) were added to each well to give a final protein concentration of 0.5 μg/well. The plates were sealed and incubated at room temperature for 2 hours in a plate shaker set at 400 rpm. The incubation was stopped by vacuum filtration onto 0.5% poly-ethylene amine (PEI) presoaked GF/C filters using a 96-well FilterMate™ harvester (Perkin Elmer) followed by four washes with 300 μl/well ice-cold wash buffer (50 mM HEPES, 500 mM NaCl, pH7.4). Filter plates were then dried for 60 min at room temperature and the bottom of the plates was sealed with backing tape UniFilter-96. Finally, 50 μl/well scintillation counter cocktail (Microscint20, Packard) was added and the radioactivity was counted in the Packard TopCount NXT scintillation counter. IC50 values (the half maximal inhibitory concentration of the agonist) were calculated by nonlinear regression analysis of sigmoidal dose-response curves.
Peptides (as TFA salts) were weighed out in a filter unit (Mini-UniPrep Syringeless Filter 0.45 μm, Whatman), and 0.1 M sodium diphosphate buffer at pH 6.4 or 7.4, respectively, or 0.2 M TRIS buffer at pH 8.3 was added to achieve 10 mg/ml final concentration. The peptide was (partially) dissolved by shaking the filter unit horizontally at approx. 400 rpm for 2 hours at room temperature. The sample was filtered to remove any insoluble particles.

For test [2], the target named is T5, Human Neuropeptide Y2 Receptor. Briefly: Radioligand binding competition assay (RLB). As to conditions: Table 3; human 125I-PYY (1-36) 0.02 nM, Y2 receptor membranes; read-out: Ki. The procedure, abridged:
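Membranes (0.5 μg/well) and test peptides, serially diluted from 1 mM DMSO stocks, were incubated 2 hours at room temperature in HEPES buffer pH 7.4 with Mg, Ca and ovalbumin.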

Method for human NPY1 receptor: (§1) Briefly, the production of intracellular cAMP will generate a competition between unlabeled cAMP and exogenously added d2-cAMP for anti-cAMP antibodies conjugated to cryptate. CHO-K1 cells stably expressing the human NPY1, NPY2, NPY4 and NPY5 receptors were used with the cells brought to life from a frozen stock immediately before assay performance. 2000 cells per well were applied for all four NPY receptor subtype assays. A 384-well format was used applying a total volume of 20 μl using 5 μl cells, 2.5 μl peptide agonist, 2.5 μl forskolin and 5 μl of each of the fluorophores. […] Concentration-response evaluation of compounds was performed with 11 concentrations of agonist peptides (covering 3 decades). EC50 values were calculated by nonlinear regression using sigmoid concentration-response with variable slope.
Method for human NPY2 receptor: as §1
From the text for human NPY5 receptor: The Homogenous Time Resolved fluorescence (HTRF) technology optimized for Gi coupled receptors has thoroughly been described in Cisbio cAMP Gi kit manual. Briefly, the production of intracellular cAMP will generate a competition between unlabeled cAMP and exogenously added d2-cAMP for anti-cAMP antibodies conjugated to cryptate. CHO-K1 cells stably expressing the human NPY1, NPY2, NPY4 and NPY5 receptors were used with the cells brought to life from a frozen stock immediately before assay performance. 2000 cells per well were applied for all four NPY receptor subtype assays. A 384-well format was used applying a total volume of 20 μl using 5 μl cells, 2.5 μl peptide agonist, 2.5 μl forskolin and 5 μl of each of the fluorophores. […] Concentration-response evaluation of compounds was performed with 11 concentrations of agonist peptides (covering 3 decades). EC50 values were calculated by nonlinear regression using sigmoid concentration-response with variable slope.

Consider `CC[C@H](C)[C@H](NC(=O)[C@H](CCC(=O)O)NC(=O)[C@H](CCC(=O)O)NC(=O)[C@@H]1CCCN1C(=O)[C@H](CO)NC(=O)[C@H](C)NC(=O)[C@H](CC(=O)O)NC(=O)[C@H](CCC(=O)O)NC(=O)[C@H](CCC(=O)O)NC(=O)[C@@H]1CCCN1C(=O)[C@H](CCCCNC(=O)COCCOCCNC(=O)COCCOCCNC(=O)CC[C@H](NC(=O)CCCCCCCCCCCCCCCCC(=O)O)C(=O)O)NC(=O)[C@H](CCC(=O)O)NC(=O)[C@@H]1CCCN1C(=O)[C@H](C)NC(=O)CC(C)C)C(=O)N[C@@H](CCC(N)=O)C(=O)N[C@@H](CCC(N)=O)C(=O)N[C@@H](Cc1ccc(O)cc1)C(=O)N[C@@H](Cc1ccc(O)cc1)C(=O)N[C@H](C(=O)N[C@@H](CO)C(=O)N[C@@H](CC(C)C)C(=O)N[C@@H](CCCNC(=N)N)C(=O)N[C@@H](Cc1c[nH]cn1)C(=O)N[C@@H](Cc1ccc(O)cc1)C(=O)N[C@@H](Cc1ccc(O)cc1)C(=O)N[C@@H](CC(N)=O)C(=O)N[C@@H](Cc1c[nH]c2ccccc12)C(=O)N[C@@H](CC(C)C)C(=O)N[C@H](C(=O)N[C@@H](CCCNC(=N)N)C(=O)N[C@@H](CCC(N)=O)C(=O)N[C@@H](CCCNC(=N)N)C(=O)N[C@@H](Cc1ccc(O)cc1)C(N)=O)[C@@H](C)O)C(C)C` [Compound 11, N{alpha-4}-(3-methylbutanoyl)-N{epsilon-7}-[2-(2-{2-[2-(2-{2-[(4S)-4-carboxy-4-(17-carboxyheptadecanamido)butanamido]ethoxy}ethoxy)acetamido]ethoxy}ethoxy)acetamido]-[4A,7K,9E,17I,18Q,19Q,22V,28Y,30W,31L]hPYY (4-36)], for which the EC50 is 0.334 nM on human NPY2 receptor, greater than 5 µM at human NPY1 receptor, greater than 5 µM on human NPY5 receptor and greater than 5 µM at human NPY4 receptor. In addition, the “Acute Food Intake 24 h [% vehicle]” value in the test on normal NMRI mice came out at 42 % vehicle.

On to `CC[C@H](C)[C@H](NC(=O)[C@H](CCC(=O)O)NC(=O)[C@H](CCC(=O)O)NC(=O)[C@@H]1CCCN1C(=O)[C@@H](NC(=O)[C@H](C)NC(=O)[C@H](CC(=O)O)NC(=O)[C@H](CCC(=O)O)NC(=O)[C@H](CCC(=O)O)NC(=O)[C@@H]1CCCN1C(=O)[C@H](CCCCNC(=O)COCCOCCNC(=O)COCCOCCNC(=O)CC[C@H](NC(=O)CCCCCCCCCCCCCCCCC(=O)O)C(=O)O)NC(=O)[C@H](CCC(=O)O)NC(=O)[C@@H]1CCCN1C(=O)[C@H](C)NC(=O)CC(C)C)[C@@H](C)O)C(=O)N[C@@H](CCC(N)=O)C(=O)N[C@@H](CCCNC(=N)N)C(=O)N[C@@H](Cc1ccc(O)cc1)C(=O)N[C@@H](Cc1ccc(O)cc1)C(=O)N[C@H](C(=O)N[C@@H](CO)C(=O)N[C@@H](CC(C)C)C(=O)N[C@@H](CCCNC(=N)N)C(=O)N[C@@H](Cc1c[nH]cn1)C(=O)N[C@@H](Cc1ccc(O)cc1)C(=O)N[C@@H](Cc1ccc(O)cc1)C(=O)N[C@@H](CC(N)=O)C(=O)N[C@@H](Cc1c[nH]c2ccccc12)C(=O)N[C@@H](CC(C)C)C(=O)N[C@H](C(=O)N[C@@H](CCCNC(=N)N)C(=O)N[C@@H](CCC(N)=O)C(=O)N[C@@H](CCCNC(=N)N)C(=O)N[C@@H](Cc1ccc(O)cc1)C(N)=O)[C@@H](C)O)C(C)C` [Compound 171, N{alpha-4}-(3-methylbutanoyl)-N{epsilon-7}-[2-(2-{2-[2-(2-{2-[(4S)-4-carboxy-4-(17-carboxyheptadecanamido)butanamido]ethoxy}ethoxy)acetamido]ethoxy}ethoxy)acetamido]-[4A,7K,9E,13T,17I,18Q,22V,28Y,30W,31L]hPYY (4-36)], for which the half-maximal effective concentration (EC50) at human NPY1 receptor, at human NPY5 receptor and at human NPY4 receptor was greater than 5 µM in each case. Further, the Ki in test [1] was determined as 3 nM.

For `CC(C)CC(=O)N[C@@H](C)C(=O)N1CCC[C@H]1C(=O)N[C@@H](CCC(=O)O)C(=O)N[C@@H](CCCCNC(=O)COCCOCCNC(=O)COCCOCCNC(=O)CC[C@H](NC(=O)CCCCCCCCCCCCCCCCC(=O)O)C(=O)O)C(=O)N1CCC[C@H]1C(=O)N[C@@H](CCC(=O)O)C(=O)N[C@@H](CCC(=O)O)C(=O)N[C@@H](CC(=O)O)C(=O)N[C@@H](C)C(=O)N[C@H](C(=O)N1CCC[C@H]1C(=O)N[C@@H](CCC(=O)O)C(=O)N[C@@H](CCC(=O)O)C(=O)N[C@@H](CC(C)C)C(=O)N[C@@H](CCC(N)=O)C(=O)N[C@@H](CCCCN)C(=O)N[C@@H](Cc1ccc(O)cc1)C(=O)N[C@@H](Cc1ccc(O)cc1)C(=O)N[C@H](C(=O)N[C@@H](CO)C(=O)N[C@@H](CC(C)C)C(=O)N[C@@H](CCCNC(=N)N)C(=O)N[C@@H](Cc1c[nH]cn1)C(=O)N[C@@H](Cc1ccc(O)cc1)C(=O)N[C@@H](Cc1ccc(O)cc1)C(=O)N[C@@H](CC(N)=O)C(=O)N[C@@H](Cc1c[nH]c2ccccc12)C(=O)N[C@@H](CC(C)C)C(=O)N[C@H](C(=O)N[C@@H](CCCNC(=N)N)C(=O)N[C@@H](CCC(N)=O)C(=O)N[C@@H](CCCNC(=N)N)C(=O)N[C@@H](Cc1ccc(O)cc1)C(N)=O)[C@@H](C)O)C(C)C)[C@@H](C)O` [Compound 231, N{alpha-4}-(3-methylbutanoyl)-N{epsilon-7}-[2-(2-{2-[2-(2-{2-[(4S)-4-carboxy-4-(17-carboxyheptadecanamido)butanamido]ethoxy}ethoxy)acetamido]ethoxy}ethoxy)acetamido]-[4A,7K,9E,13T,18Q,19K,22V,28Y,30W,31L]hPYY (4-36)], the EC50 on human NPY2 receptor is 0.107 nM; on human NPY1 receptor, greater than 5 µM; at human NPY5 receptor it was greater than 5 µM; at human NPY4 receptor, greater than 5 µM. Also, the Ki in test [2] was 1.96 nM.
